# Assay results taken from US10752581B2, “4-((2-hydroxy-3-methoxybenzyl)amino)benzenesulfonamide derivatives as potent and selective inhibitors of 12-lipoxygenase” (Eastern Virginia Medical School, priority 2013, dated 2020).
# “Also recorded” adds a separate entry of the source.
# Key:
# [1] = molecular target: human epithelial 15-lipoxygenase-2 (15-LOX-2) (Homo sapiens (Human), UniProt O15296); experiment: biochemical
# [2] = molecular target: human platelet 12-lipoxygenase (12-LOX) (Homo sapiens (Human), UniProt P18054); conditions: for IC50: read-out: IC50 [+SD], Table 1, UV-vis cuvette-based assay in triplicate
# Chain of human platelet 12-lipoxygenase (12-LOX) (P18054 whole entry): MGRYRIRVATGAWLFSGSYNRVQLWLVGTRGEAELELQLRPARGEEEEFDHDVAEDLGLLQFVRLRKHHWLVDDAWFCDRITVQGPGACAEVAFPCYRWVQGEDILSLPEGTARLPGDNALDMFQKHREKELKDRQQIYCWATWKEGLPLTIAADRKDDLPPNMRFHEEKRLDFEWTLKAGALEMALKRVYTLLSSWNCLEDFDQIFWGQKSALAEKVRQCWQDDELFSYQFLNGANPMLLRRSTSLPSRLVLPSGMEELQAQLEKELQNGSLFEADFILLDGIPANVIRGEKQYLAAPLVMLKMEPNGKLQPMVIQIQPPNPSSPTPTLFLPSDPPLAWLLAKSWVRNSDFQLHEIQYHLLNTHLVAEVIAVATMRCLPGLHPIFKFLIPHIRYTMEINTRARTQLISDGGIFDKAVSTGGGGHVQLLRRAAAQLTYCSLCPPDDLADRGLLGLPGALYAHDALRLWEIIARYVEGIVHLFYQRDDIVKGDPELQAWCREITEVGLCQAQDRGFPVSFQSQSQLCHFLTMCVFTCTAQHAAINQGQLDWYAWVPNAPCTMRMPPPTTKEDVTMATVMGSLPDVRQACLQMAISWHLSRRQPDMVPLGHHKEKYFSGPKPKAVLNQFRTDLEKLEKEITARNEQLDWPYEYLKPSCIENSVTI
# [3] = PBS buffer (pH 7.4) solubility; format: physicochemical
# Mouse beta cells (BTC3) = experiment: Mouse Beta cells (12-HETE Inhibition) Assay; conditions: AA/IONO
# Protocol: After four hours, the media was removed and spun at 1000 RPM for 5 minutes. The cleared supernatant was stored at −80° C. prior to analysis.
# [4] = Parallel Artificial Membrane Permeability Assay (PAMPA); conditions: PAMPA at pH 7.4
# 12-LOX = 12-LOX (Homo sapiens (Human), UniProt P18054)
# Chain of 12-LOX (P18054 whole entry): as above
# Protocol: Reactions were initiated by adding substrate (range 1-5 μM AA) to approximately 30 nM 12-LOX in a constantly stirring 2 mL cuvette containing 25 mM HEPES buffer (pH 7.5), in the presence of 0.01% Triton X-100. […] Kinetic data were obtained by recording initial enzymatic rates, at varied substrate and inhibitor concentrations, and subsequently fitted to the Henri-Michaelis-Menten equation, using KaleidaGraph (Synergy) to determine the microscopic rate constants, Vmax (μmol/min/mg) and Vmax/KM (μmol/min/mg/μM).
# [5] = Microsomal stability (rat); format: in vitro ADME
# [6] = system: human donor islet preparations; experiment: Glucose-stimulated insulin secretion in human islets; format: cell-based; conditions: cytokines (TNFα, IL-1β, IFNγ); 3 mM or 18 mM glucose
# Protocol: FIGS. 3D and 3E show results from glucose-stimulated insulin secretion in human donor islet preparations in response to 3 mM glucose (Low) or 18 mM glucose (High) for control (untreated) islets. […] FIGS. 3D and 3E represent results obtained in different human donor islet preparations.
# mouse plasma stability = format: in vitro ADME
# washed human platelets [7] = experiment: PAR4-AP-induced platelet aggregation; format: cell-based
# Protocol: (§1) Blood was centrifuged at 200 g for 13 min at room temperature.
# [8] = Stability in aqueous buffers and glutathione; format: physicochemical
# washed human platelets [9] = experiment: PAR4-AP-induced calcium mobilization; format: cell-based; conditions: 200 μM PAR4-AP; increasing concentrations
# Protocol: as §1
# Chain of human epithelial 15-lipoxygenase-2 (15-LOX-2) (O15296 whole entry): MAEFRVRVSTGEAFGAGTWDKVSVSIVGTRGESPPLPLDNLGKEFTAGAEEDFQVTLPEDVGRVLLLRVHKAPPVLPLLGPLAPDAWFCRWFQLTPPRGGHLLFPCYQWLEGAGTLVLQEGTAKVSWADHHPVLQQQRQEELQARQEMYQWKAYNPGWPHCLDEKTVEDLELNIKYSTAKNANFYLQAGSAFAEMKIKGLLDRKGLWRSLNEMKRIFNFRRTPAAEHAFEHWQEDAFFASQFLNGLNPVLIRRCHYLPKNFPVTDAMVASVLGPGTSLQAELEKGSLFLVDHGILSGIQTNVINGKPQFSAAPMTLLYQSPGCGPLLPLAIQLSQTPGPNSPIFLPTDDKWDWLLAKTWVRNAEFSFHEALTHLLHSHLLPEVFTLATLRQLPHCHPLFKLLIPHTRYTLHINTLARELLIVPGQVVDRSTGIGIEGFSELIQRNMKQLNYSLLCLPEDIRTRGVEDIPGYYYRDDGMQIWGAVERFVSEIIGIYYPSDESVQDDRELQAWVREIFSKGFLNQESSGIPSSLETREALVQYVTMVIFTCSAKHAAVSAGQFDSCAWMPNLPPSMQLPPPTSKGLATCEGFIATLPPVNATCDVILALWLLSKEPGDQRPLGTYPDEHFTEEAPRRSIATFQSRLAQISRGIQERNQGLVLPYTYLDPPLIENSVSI
compound,measurement,setting,value
"COc1cccc(CNc2ccc(S(=O)(=O)Nc3nccs3)cc2)c1O [Compound 1, 4-(2-hydroxy-3-methoxybenzylamino)-N-(thiazol-2-yl)benzenesulfonamide]",IC50,[1],> 40 µM
"O=S(=O)(Nc1nccs1)c1ccc(NCc2ccccc2)cc1 [Compound 8, 4-(benzylamino)-N-(thiazol-2-yl)benzene sulfonamide]","12-LOX inhibitory activity (SAR, in words)",[2],complete loss of activity
same,IC50,[2],> 40 µM
"O=S(=O)(Nc1nccs1)c1ccc(NCc2ccccc2O)cc1 [Compound 9, 4-(2-hydroxybenzylamino)-N-(thiazol-2-yl)benzene sulfonamide]","12-LOX inhibitory activity (SAR, in words)",[2],complete loss of activity
same,IC50,[2],> 40 µM
"Nc1ccccc1CNc1ccc(S(=O)(=O)Nc2nccs2)cc1 [Compound 13, 4-(2-aminobenzylamino)-N-(thiazol-2-yl)benzene sulfonamide]","12-LOX inhibitory activity (SAR, in words)",[2],negated all 12-LOX inhibitory activity
same,IC50,[2],> 40 µM
"O=S(=O)(Nc1nccs1)c1ccc(NCc2cccc(O)c2)cc1 [Compound 14, 4-(3-hydroxybenzylamino)-N-(thiazol-2-yl)benzene sulfonamide]",IC50,[2],> 40 µM
"COc1cccc(CNc2ccc(S(=O)(=O)Nc3nc4ccccc4o3)cc2)c1O [Compound 36, N-(benzo[d]oxazol-2-yl)-4-((2-hydroxy-3-methoxybenzyl)amino)benzenesulfonamide]",solubility,"[3]; PBS buffer, pH 7.4, aqueous buffer",> 60 µg/mL
same,improvement of solubility in buffer,[3]; relative to ML355,> 10 fold
same,inhibition of 12-HETE in mouse beta cells (in words),Mouse beta cells (BTC3),Comparable results
same,permeability (1 × 10^−6 cm/s),[4],168^c 1 × 10^−6 cm/s
same,mode of inhibition,12-LOX,mixed inhibitors
same,half-life,"[5]; microsomes, rat, in the presence of NADPH, read-out: Microsomal stability T1/2",> 30 min
same,microsomal degradation without NADPH,[5]; without NADPH present over a 1 h period,^bRepresents the stability in the presence of NADPH. 35 and 36 showed no degradation without NADPH present over a 1 h period.
same,glucose-stimulated insulin secretion with cytokines,[6],Uncoupling of glucose-stimulated insulin secretion by cytokines is inhibited
same,mouse plasma stability remaining at 2 h (%),mouse plasma stability,100%
same,PAR4-AP induced platelet aggregation (in words),washed human platelets [7],Comparable results
same,PBS buffer (pH 7.4) stability at 48 h (%),[8],100%
same,PAR4-AP-induced calcium mobilization (in words),washed human platelets [9],Calcium mobilization was decreased; also recorded: Comparable results
